Test [1] deals with Plasmodium falciparum. Nature of the test: Antimalarial activity against chloroquine-resistant Plasmodium falciparum K1. The test is classed as functional. Particulars: read-out: ED50 (the source's name).
Test [2] deals with Plasmodium falciparum. Nature of the test: Antimalarial activity against chloroquine-sensitive Plasmodium falciparum 3D7. The test is classed as functional. The note with it: read-out: ED50 (the source's name).

Each structure is given as a SMILES string.

Consider `CCN(CC)CCCC(C)Nc1ccnc2cc(Cl)ccc12` (configuration not stated) [CHLOROQUINE], for which the EC50 with Plasmodium falciparum [1] was determined as 0.29 µM; in the test with Plasmodium falciparum [2] it was 0.00852 µM.

The record behind these values is ChEMBL document CHEMBL1149698, “Metallocene-based antimalarials: an exploration into the influence of the ferrocenyl moiety on in vitro antimalarial activity in chloroquine-sensitive and chloroquine-resistant strains of Plasmodium falciparum” (Bioorg Med Chem, 2007).
